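48-hour exposure; five concentrations; linearly interpolated endpoints. TGI: concentration producing complete growth inhibition.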
What was measured:
Experiment in all cases: DTP human tumour cell line panel, 48 h
SK-MEL-2 melanoma = tested on: SK-MEL-2 melanoma
HOP-92 NSCLC = tested on: HOP-92 NSCLC
A498 renal = tested on: A498 renal
MCF7 breast = tested on: MCF7 breast
SF-268 CNS = tested on: SF-268 CNS
HCT-15 colon = tested on: HCT-15 colon
MDA-N = tested on: MDA-N
KM12 colon = tested on: KM12 colon
PC-3 prostate = tested on: PC-3 prostate
CCRF-CEM leukemia = tested on: CCRF-CEM leukemia
A549 NSCLC = tested on: A549 NSCLC
NCI-H460 lung = tested on: NCI-H460 lung
DU-145 prostate = tested on: DU-145 prostate
HCT-116 colon = tested on: HCT-116 colon
OVCAR-5 ovarian = tested on: OVCAR-5 ovarian
T-47D breast = tested on: T-47D breast
M14 melanoma = tested on: M14 melanoma
UO-31 renal = tested on: UO-31 renal
CAKI-1 renal = tested on: CAKI-1 renal
SR leukemia = tested on: SR leukemia
ACHN renal = tested on: ACHN renal
SN12C renal = tested on: SN12C renal
OVCAR-3 ovarian = tested on: OVCAR-3 ovarian
LOX IMVI melanoma = tested on: LOX IMVI melanoma
COLO 205 colon = tested on: COLO 205 colon
NCI/ADR-RES ovarian = tested on: NCI/ADR-RES ovarian
SW-620 colon = tested on: SW-620 colon
OVCAR-8 ovarian = tested on: OVCAR-8 ovarian
TK-10 renal = tested on: TK-10 renal
RXF 393 renal = tested on: RXF 393 renal
SK-MEL-5 melanoma = tested on: SK-MEL-5 melanoma
NCI-H23 lung = tested on: NCI-H23 lung
BT-549 breast = tested on: BT-549 breast
UACC-257 melanoma = tested on: UACC-257 melanoma
SNB-19 CNS = tested on: SNB-19 CNS
EKVX NSCLC = tested on: EKVX NSCLC
SNB-75 CNS = tested on: SNB-75 CNS
MOLT-4 leukemia = tested on: MOLT-4 leukemia
RPMI-8226 leukemia = tested on: RPMI-8226 leukemia
HL-60(TB) leukemia = tested on: HL-60(TB) leukemia
MDA-MB-435 = tested on: MDA-MB-435
SK-OV-3 ovarian = tested on: SK-OV-3 ovarian
K-562 leukemia = tested on: K-562 leukemia
HT29 colon = tested on: HT29 colon
SF-539 CNS = tested on: SF-539 CNS
HCC-2998 colon = tested on: HCC-2998 colon
MALME-3M melanoma = tested on: MALME-3M melanoma
OVCAR-4 ovarian = tested on: OVCAR-4 ovarian
SF-295 CNS = tested on: SF-295 CNS
786-0 renal = tested on: 786-0 renal
NCI-H522 lung = tested on: NCI-H522 lung
U251 CNS = tested on: U251 CNS
HS 578T breast = tested on: HS 578T breast
NCI-H226 lung = tested on: NCI-H226 lung
UACC-62 melanoma = tested on: UACC-62 melanoma
HOP-62 NSCLC = tested on: HOP-62 NSCLC
MDA-MB-231 breast = tested on: MDA-MB-231 breast
SK-MEL-28 melanoma = tested on: SK-MEL-28 melanoma
IGROV1 ovarian = tested on: IGROV1 ovarian

`CCOC(=O)c1c(N2CCOCC2)[nH]c(=O)c(C(c2c(O)c(C(=O)OCC)c(N3CCOCC3)[nH]c2=O)C(C)C)c1O` was tested, and the TGI (SK-MEL-2 melanoma) was greater than 100 µM, the TGI (HOP-92 NSCLC) was greater than 100 µM and the TGI (A498 renal) was greater than 100 µM. For the same compound, the TGI (MCF7 breast) was greater than 100 µM, the TGI (SF-268 CNS) was greater than 100 µM and the TGI (HCT-15 colon) was greater than 100 µM. The TGI (MDA-N) was greater than 100 µM, the TGI (KM12 colon) was greater than 100 µM and the TGI (PC-3 prostate) was greater than 100 µM. The TGI (CCRF-CEM leukemia) was greater than 100 µM, the TGI (A549 NSCLC) was greater than 100 µM and the TGI (NCI-H460 lung) was greater than 100 µM. It also gave a TGI (DU-145 prostate) greater than 100 µM, a TGI (HCT-116 colon) greater than 100 µM and a TGI (OVCAR-5 ovarian) greater than 100 µM. It also gave a TGI (T-47D breast) greater than 100 µM, a TGI (M14 melanoma) greater than 100 µM and a TGI (UO-31 renal) greater than 100 µM. The TGI (CAKI-1 renal) was greater than 100 µM, the TGI (SR leukemia) was greater than 100 µM and the TGI (ACHN renal) was greater than 100 µM. For the same compound, the TGI (SN12C renal) was greater than 100 µM, the TGI (OVCAR-3 ovarian) was greater than 100 µM and the TGI (LOX IMVI melanoma) was greater than 100 µM. For the same compound, the TGI (COLO 205 colon) was greater than 100 µM, the TGI (NCI/ADR-RES ovarian) was greater than 100 µM and the TGI (SW-620 colon) was greater than 100 µM. It also gave a TGI (OVCAR-8 ovarian) greater than 100 µM, a TGI (TK-10 renal) greater than 100 µM and a TGI (RXF 393 renal) greater than 100 µM. For the same compound, the TGI (SK-MEL-5 melanoma) was greater than 100 µM, the TGI (NCI-H23 lung) was greater than 100 µM and the TGI (BT-549 breast) was greater than 100 µM. The TGI (UACC-257 melanoma) was greater than 100 µM, the TGI (SNB-19 CNS) was greater than 100 µM and the TGI (EKVX NSCLC) was greater than 100 µM. For the same compound, the TGI (SNB-75 CNS) was 69.7 µM, the TGI (MOLT-4 leukemia) was greater than 100 µM and the TGI (RPMI-8226 leukemia) was greater than 100 µM. It also gave a TGI (HL-60(TB) leukemia) greater than 100 µM, a TGI (MDA-MB-435) greater than 100 µM and a TGI (SK-OV-3 ovarian) greater than 100 µM. It also gave a TGI (K-562 leukemia) greater than 100 µM, a TGI (HT29 colon) greater than 100 µM and a TGI (SF-539 CNS) greater than 100 µM. The TGI (HCC-2998 colon) was greater than 100 µM, the TGI (MALME-3M melanoma) was greater than 100 µM and the TGI (OVCAR-4 ovarian) was greater than 100 µM. For the same compound, the TGI (SF-295 CNS) was greater than 100 µM, the TGI (786-0 renal) was greater than 100 µM and the TGI (NCI-H522 lung) was greater than 100 µM. It also gave a TGI (U251 CNS) greater than 100 µM, a TGI (HS 578T breast) greater than 100 µM and a TGI (NCI-H226 lung) greater than 100 µM. It also gave a TGI (UACC-62 melanoma) greater than 100 µM, a TGI (HOP-62 NSCLC) greater than 100 µM and a TGI (MDA-MB-231 breast) greater than 100 µM. It also gave a TGI (SK-MEL-28 melanoma) greater than 100 µM.

In the case of `NC(Cc1cc(Br)c(O)c(Br)c1)C(=O)O` (stereo not given), the TGI (SK-MEL-2 melanoma) was greater than 100 µM, the TGI (HOP-92 NSCLC) was greater than 100 µM and the TGI (A498 renal) was greater than 100 µM. The TGI (MCF7 breast) was greater than 100 µM, the TGI (SF-268 CNS) was greater than 100 µM and the TGI (HCT-15 colon) was greater than 100 µM. The TGI (MDA-N) was greater than 100 µM, the TGI (KM12 colon) was greater than 100 µM and the TGI (PC-3 prostate) was greater than 100 µM. It also gave a TGI (CCRF-CEM leukemia) greater than 100 µM, a TGI (A549 NSCLC) greater than 100 µM and a TGI (NCI-H460 lung) greater than 100 µM. For the same compound, the TGI (DU-145 prostate) was greater than 100 µM, the TGI (HCT-116 colon) was greater than 100 µM and the TGI (OVCAR-5 ovarian) was greater than 100 µM. The TGI (T-47D breast) was greater than 100 µM, the TGI (M14 melanoma) was greater than 100 µM and the TGI (CAKI-1 renal) was greater than 100 µM. The TGI (SR leukemia) was greater than 100 µM, the TGI (ACHN renal) was greater than 100 µM and the TGI (SN12C renal) was greater than 100 µM. The TGI (OVCAR-3 ovarian) was greater than 100 µM, the TGI (LOX IMVI melanoma) was greater than 100 µM and the TGI (COLO 205 colon) was greater than 100 µM. It also gave a TGI (NCI/ADR-RES ovarian) greater than 100 µM, a TGI (SW-620 colon) greater than 100 µM and a TGI (OVCAR-8 ovarian) greater than 100 µM. For the same compound, the TGI (TK-10 renal) was greater than 100 µM, the TGI (RXF 393 renal) was greater than 100 µM and the TGI (SK-MEL-5 melanoma) was greater than 100 µM. For the same compound, the TGI (NCI-H23 lung) was greater than 100 µM, the TGI (BT-549 breast) was greater than 100 µM and the TGI (UACC-257 melanoma) was greater than 100 µM. It also gave a TGI (SNB-19 CNS) greater than 100 µM, a TGI (EKVX NSCLC) greater than 100 µM and a TGI (SNB-75 CNS) greater than 100 µM. It also gave a TGI (MOLT-4 leukemia) greater than 100 µM, a TGI (IGROV1 ovarian) greater than 100 µM and a TGI (RPMI-8226 leukemia) greater than 100 µM. The TGI (HL-60(TB) leukemia) was greater than 100 µM, the TGI (MDA-MB-435) was greater than 100 µM and the TGI (SK-OV-3 ovarian) was greater than 100 µM. For the same compound, the TGI (K-562 leukemia) was greater than 100 µM, the TGI (HT29 colon) was greater than 100 µM and the TGI (SF-539 CNS) was greater than 100 µM. The TGI (MALME-3M melanoma) was greater than 100 µM, the TGI (OVCAR-4 ovarian) was greater than 100 µM and the TGI (SF-295 CNS) was greater than 100 µM. It also gave a TGI (786-0 renal) greater than 100 µM, a TGI (NCI-H522 lung) greater than 100 µM and a TGI (U251 CNS) greater than 100 µM. For the same compound, the TGI (HS 578T breast) was greater than 100 µM, the TGI (NCI-H226 lung) was greater than 100 µM and the TGI (UACC-62 melanoma) was greater than 100 µM. The TGI (HOP-62 NSCLC) was greater than 100 µM, the TGI (MDA-MB-231 breast) was greater than 100 µM and the TGI (SK-MEL-28 melanoma) was greater than 100 µM.

— PubChem BioAssay (NCI)
